Reference: patent US20110251220A1, “Pharmaceutical compositions comprising gamma secretase modulators” (priority 2008, published 2011)

Experiments:
Type in all cases: cell-based, human
[1] = system: OPM-2 cells; experiment: Apoptosis by AnnexinV-FITC/PI staining, OPM-2
Protocol: The compound according to example 1, hereinafter referred to as GSI15, (compound RH02015SC, Maybridge, Acros Organics, Geel, Belgium) was freshly dissolved as 26 mM stock solution in Dimethylsulfoxide (DMSO). Multiple myeloma therapeutics used were melphalan (marketed as Alkeran®, GlaxoSmithKline, Munich, Germany) and bortezomib (marketed as Velcade®, Janssen-Cilag, Neuss, Germany). Melphalan was freshly dissolved at 10 mg/ml in 0.9% NaCl-solution. Bortezomib was freshly dissolved at 100 ng/ml in 0.9% NaCl solution. Gamma Secretase Inhibitor (GSI) treatment for apoptosis assessment by AnnexinV/PI staining, cell cycle analysis and coculture experiments was performed in 6-well plates. GSI15 stock solution was added directly to the cell suspension. GSI treatment for assaying proliferation was performed in 96-well plates. 10,000 cells per well were seeded in 50 μl medium per well before 50 μl of a 2× solution of GSI15 prediluted in medium were added per well. Melphalan and bortezomib treatment as well as their combination with GSI15 for assaying apoptosis by AnnexinV/PI staining was done in 6-well plates. All inhibitors were added directly to the cells in 6-well plates.
For cell cycle analysis 2×10^5 cells were spun down, medium was aspirated and cells washed with PBS. Cells were then resuspended in 250 μl PBS. 1 ml ice-cold 70% ethanol was added, followed by overnight incubation at −20° C. Cells were spun down, the pellet washed with PBS and then resuspended in 200 μl PBS containing 0.15 mg/ml RNaseA and 30 μg/ml propidium iodide (PI). After 10 minutes incubation in the dark at room temperature, cells were analyzed by flow cytometry. The amount of apoptotic cells was determined by AnnexinV/propidium iodide staining using Human AnnexinV-FITC Kit (Bender Medsystems, Vienna, Austria), according to manufacturer's protocol. Briefly, 2×10^5 cells were spun down and washed with PBS, followed by 10 minutes incubation in binding buffer containing AnnexinV-FITC conjugate. Cells were then spun down again, resuspended in binding buffer containing PI and analyzed by flow cytometry.

[2] = system: OBL; experiment: Viability assay, OBL
Protocol: For assaying proliferation/viability of cells CellTiter-Glo Luminescent Cell Viability Assay (Promega, Mannheim, Germany) was used. In this assay the number of viable cells at a given time point is determined by quantification of ATP present, which serves as a measure of metabolically active cells. The assay was carried out according to manufacturer's protocol. Briefly, cells were plated in 96-well plates at 10,000 cells per well in 100 μl medium and treated with indicated amounts of GSI15, with DMSO as solvent control or left untreated. Each treatment was done in four independent replicates in different wells. 24 h and 48 h after start of treatment 30 μl per well were transferred into an opaque-walled plate and lysed using CellTiter-Glo solution. Luminescence was recorded and integrated for two seconds per well. Average values were calculated and normalized to the respective untreated sample.

[3] = system: Hes-1; experiment: Hes-1 mRNA expression in OCL (quantitative RT-PCR); conditions: mono- and coculture with OPM-2
Protocol: (§1) In osteoclast coculture experiments, OPM-2 cells (1×10^6 cells) were added to osteoclasts in 60 mm dishes (4×10^6 cells per dish) in 3 ml MEM medium supplemented with 10% FCS, 100 U/ml penicillin, 100 μg/ml streptomycin. GSI15 (30 μM, 60 μM) or DMSO (equivalent to 60 μM) as solvent control were added to each well (daily treatment). After 48 h, 0.5 ml OPM-2 cell suspension were harvested per well and subjected to AnnexinV-FITC/PI staining. Remaining OPM-2 cells were harvested and lysed for either RNA or protein preparation. The monolayer of osteoclasts was washed twice with ice-cold PBS and then lysed for either RNA or protein preparation directly on the plate.
(§2) Quantitative real-time reverse transcription-PCR (RT-PCR) analysis was performed using the following primer/probe sets: human Hes-1 (forward—[…], reverse—[…], probe—FAM-[…]-TAMRA) human TRAP5 (forward—[…], reverse—[…], probe FAM-[…]-TAMRA), human beta2-microglobulin (forward—ccc cca ctg aaa aag atg ag, reverse—atc caa tcc aaa tgc ggc, probe—FAM-CCTGCCGTGTGAACCATGTGACTTT-TAMRA) served as normalizer. […] For the RT-PCR reaction SuperScript™ III Platinum® One-Step Quantitative RT-PCR System (Invitrogen, Karlsruhe, Germany) was used. 50 ng total RNA were used per reaction, each RNA sample was analyzed in three replicates. […] Normalized mRNA expression data were then calculated as values relative to the respective untreated sample.

[4] = system: tartrate resistant acid phosphatase-5 (TRAP5); experiment: TRAP5 mRNA expression in OCL (quantitative RT-PCR); conditions: OCL after coculture with OPM-2
Protocol: as §1, §2

**Q.** With `CC(C)c1ccc(S(=O)(=O)Nc2cccnc2Oc2ccc(Cl)cc2)cc1` [Example 1, N-(2-(4-chlorophenoxy)pyridin-3-yl)-4-isopropylbenzenesulfonamide] as the molecule, how does the apoptosis induction ([1]; OPM-2, 40 μM GSI15 alone, 24 h) read?
**A.** did not induce apoptosis

**Q.** And the AnnexinV-FITC/PI staining ([1]; OPM-2, 48 h of treatment)?
**A.** decrease of OPM-2 cells negative for both Annexin V-FITC- and PI-staining

**Q.** What about the “overall amount of apoptotic cells” value ([1]; OPM-2 alone, 60 μM GSI15, 48 h) of the same molecule?
**A.** 29%

**Q.** And the viability [2]?
**A.** no difference between untreated and GSI15 treated

**Q.** And the “Hes-1 mRNA expression” value [3]?
**A.** diminished Hes-1 mRNA expression

**Q.** What about the “TRAP5 mRNA expression” value [4] of the same molecule?
**A.** completely blocked the upregulation of TRAP5 mRNA expression
